From US20240208997A1, “CYCLIC BENZIMIDAZOLE DERIVATIVES AS CGAS INHIBITORS” (Boehringer Ingelheim International GmbH, priority 2022, published 2024) come the findings set out here.

Test [1] deals with IFN induction in cGAMP-stimulated THP1 cells. Nature of the test: cGAMP stimulated counter cell assay in THP1-Dual cells (THP1(cGAMP) IC50). It counts as cell-based, human. Particulars: Table 1; for IC50: Homo sapiens, THP-1, counter assay, 10 μM cGAMP stimulation, read-out: THP(cGAMP) IC50; for Ratio THP(cGAMP) IC50/THP(vir) IC50: selectivity for cGAS-inhibition. In a few lines:
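THP1-Dual cells (5000/well, RPMI/10% FCS) stimulated with cGAMP to activate the pathway directly downstream of cGAS; compounds at 8 concentrations, top 10 μM, ~1:5 steps, 1% DMSO. After 18 h at 37 °C, Lucia luciferase luminescence read; IC50 from 4-parameter logistic fit normalised to low and high controls.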

The subject of test [2] is IFN induction in dsDNA-stimulated human whole blood. The experiment in a line: Human whole blood assay (hWB IC50), dsDNA stimulated, IFNα2α production. The test is classed as cell-based. Particulars: Table 1. As for the experimental part:
6.3 Method: Human Whole Blood Assay (Human WB IC50)
For the detection of cellular cGAS activity human whole blood was stimulated by transfection with double stranded DNA. Pathway activity was monitored by measuring the IFNα2α production.
Compounds were delivered as 10 mM DMSO solution and serially diluted and transferred to the 96-well cell culture plate (Corning #3595), prefilled with 20 μl OptiMEM (Gibco, #11058-021) in each well, using an Echo acoustic dispenser. Typically, 8 concentrations were used with the highest concentration at 10 μM in the final assay volume followed by ^˜1:5 dilution steps. DMSO concentration was set to 0.1% in the final assay volume. The 96-well assay plate contained 10 test compounds, and DMSO in control wells.
Collection of human whole blood from 3 or more healthy donors (male or female, no medication for 7 days except contraceptive and thyroxine) as Na-Citrate blood (e.g. 3.8% in Monovettes from Sarstedt) was conducted in parallel. Whole blood was kept at room temperature for a maximum of 3 hours after collection until use in the assay. 160 μl of the whole blood samples was transferred to each well of the 96-well assay plates filled with compound/OptiMEM. All assay plates were prepared as duplicates with blood from different donors. Blood plates were kept at room temperature for 60 minutes and continuous shaking with 450 rpm, covered with the lid, but not sealed.
20 μl OptiMEM and 9.6:1 Fugene was added to all low control wells.
After covering assay plates with aera seals and the lid, blood plates were kept at room temperature for 30 minutes and continuous shaking with 450 rpm, followed by an overnight incubation of 22 h at 37° C. in the incubator, without shaking.
For the detection of IFNα-2α in human plasma, the biotinylated capture antibody (Antibody set IFNA2, Meso Scale Diagnostics #B21VH-3, including coating and capture antibody) was diluted 1:17.5 in Diluent 100 (Meso Scale Diagnostics #R50AA-4), according to the manufacturer's directions. U-Plex MSD GOLD 96-well Small Spot Strepavidin SECTOR Plates (Meso Scale Diagnostics #L45SA-5) were coated with 25 μl diluted capture antibody. Coated plates were incubated for 60 min at room temperature under continuous shaking at 700 rpm. MSD IFNα-2α plates were washed three times with 150 μl wash buffer (1× HBSS, 0.05% Tween).
After blocking the plates with 100 μl block solution/well (1× HBSS with 0.2% Tween, 2% BSA) for 60 min at room temperature and continuous shaking at 700 rpm, plates were emptied as dry as possible by dumping just before continuing with the human plasma.
Whole Blood assay plates were centrifuged at 1600 rpm for 10 minutes. 25 μl of supernatant was transferred with a pipetting robot from each whole blood plate to the corresponding IFNα-2α plate. Plates were sealed with microplate seals and kept at room temperature again under continuous shaking at 700 rpm for two hours.
Next MSD IFNα-2α plates were washed three times with 150 μl wash buffer (1× HBSS, 0.05% Tween), before adding 25 μl MSD SULFO-TAG IFNα-2α Antibody solution (1:100 diluted in Diluent 3 (Meso Scale Diagnostics #R50AP-2) to each well of the plates.
Afterwards plates were sealed with microplate seals and kept at room temperature again under continuous shaking at 700 rpm for two hours. Finally, MSD IFNα-2α plates were washed three times with 150 μl wash buffer (1× HBSS, 0.05% Tween). 150 μl 2× Read buffer was added to each well and plates were immediately measured with the MSD Sector S600 Reader using the vendor barcode.
Data Evaluation and Calculation:
For data evaluation and calculation, % control calculation of each well was based on the mean of high (DNA stimulated control) and mean of low (unstimulated control) controls by using the following formula:
[counts(sample)−counts(low))/(counts(high)−counts(low))]*100
The IC50-values were calculated using the standard 4 parameter logistic regression formula. […]

Each structure is given as a SMILES string. Bounds are passed on as bounds.

Turning to `C[C@@H]1CN2CC[C@H]1n1c(nc3ccccc31)O[C@H]1C[C@@H](C(=O)O)N(C1)c1nc(nc3c1oc1ccccc13)CCCCCOC2=O` [Example 10.01], the results for the half-inhibitory concentration (IC50) in test [1] and in test [2] were 8200 nM and 439 nM, respectively. Further, in test [1], the “Ratio THP(cGAMP) IC50/THP(vir) IC50” value stood at 45.
In the case of `C[C@H]1CN2CC[C@@H]1n1c(nc3ccccc31)O[C@H]1C[C@@H](C(=O)O)N(C1)c1nc(nc3c1oc1ccccc13)CCCCCOC2=O` [Example 10.02], in test [1], the 50% inhibitory concentration (IC50) was greater than 10000 nM and the “Ratio THP(cGAMP) IC50/THP(vir) IC50” value is given as greater than 156. In test [2], this molecule returned a half-maximal inhibitory concentration (IC50) of 83 nM.
The corresponding values for `O=C(O)[C@@H]1C[C@H]2CN1c1nc(nc3c1oc1ccccc13)OCCCCOC(=O)N1CCC(CC1)n1c(nc3ccccc31)O2` [Example 11.01] are greater than 1000 nM, greater than 56 and 138 nM.
With `C[C@H]1CN2CC[C@@H]1n1c(nc3ccccc31)O[C@H]1C[C@@H](C(=O)O)N(C1)c1nc(nc3c1oc1ccccc13)CCCCCN(C)C2=O` [Example 13.01], in test [1], the IC50 was 7300 nM and the “Ratio THP(cGAMP) IC50/THP(vir) IC50” value worked out at 15. The IC50 in test [2] came out at 186 nM.
